According to PubChem BioAssay (NCI):
Where “and” joins values, the source holds several entries; their conditions need not be identical. Equal entries are not always repeated.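 Following 48 hours of exposure in 96-well plates, responses at five concentrations were used to interpolate endpoints linearly. Abbreviation: GI50, concentration required for 50% inhibition of growth. TGI: total growth inhibition.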

Columns and labels:
Assay in all cases: NCI anticancer screen, dose series, 48 h
[1] = test system: MDA-MB-435
[2] = test system: OVCAR-8 ovarian
[3] = test system: HCT-116 colon
[4] = test system: HCC-2998 colon
[5] = test system: SN12C renal
[6] = test system: A498 renal
[7] = test system: DU-145 prostate
[8] = test system: CCRF-CEM leukemia
[9] = test system: COLO 205 colon
[10] = test system: IGROV1 ovarian

O=C1C(=Cc2ccc(Cl)c(Cl)c2)C([O-])=C([P+](c2ccccc2)(c2ccccc2)c2ccccc2)C([O-])=C1[P+](c1ccccc1)(c1ccccc1)c1ccccc1
TGI [1]: 5.59 µM | TGI [2]: 6.7 µM | TGI [3]: 3.73 µM | TGI [4]: 5.78 µM | TGI [5]: 6.47 µM | TGI [6]: 31.9 µM | TGI [7]: 28.1 µM | TGI [8]: 5.6 µM | TGI [9]: 3.28 µM | TGI [10]: 6.34 µM

COc1ccc(Nc2nc(N)c(C(=O)c3cccs3)s2)cc1
TGI [1]: 22.8 µM | TGI [2]: > 100 µM | TGI [3]: > 36.5 µM | TGI [4]: 8.85 µM | TGI [5]: > 75.6 µM | TGI [6]: 40.5 µM | TGI [7]: 36.3 µM | TGI [8]: 12.8 µM | TGI [9]: 21.6 µM | TGI [10]: 41.5 µM

CC1=C(C)C(=O)C(C2=CC(=O)C=CC2=O)=C(C2=CC(=O)C=CC2=O)C1=O
TGI [1]: > 83.7 µM | TGI [2]: > 87.7 µM | TGI [3]: > 79.2 µM | TGI [4]: > 100 µM | TGI [5]: > 71.8 µM | TGI [6]: > 100 µM | TGI [7]: > 100 µM | TGI [8]: > 100 µM | TGI [9]: > 100 µM | TGI [10]: > 100 µM

N#CC(C#N)=C1C(=O)NC(N)=C1C#N
TGI [1]: > 100 µM | TGI [2]: > 100 µM | TGI [3]: > 100 µM | TGI [4]: > 100 µM | TGI [5]: > 100 µM | TGI [6]: > 100 µM | TGI [7]: > 100 µM | TGI [8]: > 100 µM | TGI [9]: > 100 µM | TGI [10]: > 100 µM

OC1C[C@H](c2ccccc2)C2(C(O)c3ccccc3C2O)[C@@H](c2ccccc2)C1 (stereo partly drawn)
TGI [1]: > 100 µM | TGI [2]: > 100 µM | TGI [3]: > 100 µM | TGI [4]: > 100 µM | TGI [5]: > 100 µM | TGI [6]: > 100 µM | TGI [7]: > 100 µM | TGI [8]: > 100 µM | TGI [9]: > 100 µM | TGI [10]: > 100 µM

[N-]=[N+]=Nc1c([N+](=O)[O-])c(=O)n2c3c(cccc13)CCC2
TGI [1]: 31.2 µM | TGI [2]: 35.1 µM | TGI [3]: 30.2 µM | TGI [4]: 34.4 µM | TGI [5]: 25.9 µM | TGI [6]: 50.4 µM | TGI [7]: 38.7 µM | TGI [8]: 4.98 µM | TGI [9]: 20.9 µM | TGI [10]: 41 µM

CNc1ncnc2c1cnn2Cc1cn(COCC(O)CO)nn1 (stereo not drawn)
TGI [1]: > 100 µM | TGI [2]: > 100 µM | TGI [3]: > 100 µM | TGI [4]: > 100 µM | TGI [5]: > 100 µM | TGI [6]: > 100 µM | TGI [7]: > 100 µM | TGI [8]: > 100 µM | TGI [9]: > 100 µM | TGI [10]: > 100 µM

CCOC(=O)N1CCC(=C2c3ccc(Cl)cc3CCc3cccnc32)CC1
TGI [1]: 24.9 µM | TGI [2]: 32.5 µM | TGI [3]: 32.4 µM | TGI [4]: 23.6 µM | TGI [5]: 24.4 µM | TGI [6]: 8.12 µM | TGI [7]: 26.9 µM | TGI [8]: > 100 µM | TGI [9]: 21.6 µM | TGI [10]: 8.22 µM

CCN1CCC(O)(/C=C/c2ccc(C(C)C)cc2)C(C(=O)/C=C/c2ccc(C(C)C)cc2)C1 (stereo not drawn)
TGI [1]: 8.99 µM | TGI [2]: 4.31 µM | TGI [3]: 3.53 µM | TGI [4]: 3.64 µM | TGI [5]: 6.06 µM | TGI [6]: 19.1 µM | TGI [7]: 9.76 µM | TGI [8]: 4.36 µM | TGI [9]: 5.11 µM | TGI [10]: 6.79 µM

CCCCCCCCCCCCCC(=O)N(CCCCCCCCC)CC(O)C(O)C(OC1OC(CO)C(O)C(O)C1O)C(O)CO (stereo not drawn)
TGI [1]: 34.6 µM | TGI [2]: 39.3 µM | TGI [3]: 32.1 µM | TGI [4]: 33.7 µM | TGI [5]: 37.1 µM | TGI [6]: 35.9 µM | TGI [7]: 30.6 µM | TGI [8]: 45.4 µM | TGI [9]: 37.3 µM | TGI [10]: 38.1 µM

Cc1cn(S(=O)(=O)c2ccccc2)c2c(OCc3ccccc3)cc(NS(C)(=O)=O)cc12
TGI [1]: > 100 µM | TGI [2]: > 100 µM | TGI [3]: > 100 µM | TGI [4]: > 100 µM | TGI [5]: > 70.2 µM | TGI [6]: 50.3 µM | TGI [7]: > 100 µM | TGI [8]: > 100 µM | TGI [9]: 77.2 µM | TGI [10]: > 100 µM

Brc1ccc2c(-c3csc(-c4c[nH]c5ccccc45)n3)c[nH]c2c1
TGI [1]: 32.9 µM | TGI [2]: 33.1 µM | TGI [3]: 29.6 µM | TGI [4]: 30.9 µM | TGI [5]: 39.2 µM | TGI [6]: 32.2 µM | TGI [7]: 32.9 µM | TGI [8]: 38.1 µM | TGI [9]: 25.4 µM | TGI [10]: 26.6 µM

CN(C)/N=N/c1nc[nH]c1C(N)=O
GI50 [1]: 31.4 µM | TGI [1]: > 1000 µM | GI50 [2]: 35.9 µM | TGI [2]: > 1000 µM | GI50 [3]: 45.4 µM | TGI [3]: > 1000 µM | GI50 [4]: 58.4 µM | TGI [4]: 99.5 µM and > 654 µM | GI50 [5]: 60.6 µM | TGI [5]: > 1000 µM | GI50 [6]: 72.4 µM and > 133 µM | TGI [6]: > 875 µM | GI50 [7]: 51.2 µM | TGI [7]: > 1000 µM | TGI [8]: 90.1 µM and > 731 µM | GI50 [9]: 139 µM | TGI [9]: > 1000 µM | GI50 [10]: 129 µM

CCOC(=O)/C=C(\C(=O)OCC)n1ccc(=O)[nH]c1=O
TGI [1]: 38 µM | TGI [2]: > 53.4 µM | TGI [3]: 19.6 µM | TGI [4]: 38.4 µM | TGI [5]: 26.4 µM | TGI [6]: 34.8 µM | TGI [7]: > 76.9 µM | TGI [8]: 6.2 µM | TGI [9]: 8.24 µM | TGI [10]: 30.1 µM

COc1ccc(N2NC(c3ccccc3)(c3ccccc3)C(C)C2=O)cc1 (stereo not drawn)
TGI [1]: > 100 µM | TGI [2]: > 100 µM | TGI [3]: > 100 µM | TGI [4]: > 100 µM | TGI [5]: > 100 µM | TGI [6]: > 100 µM | TGI [7]: > 100 µM | TGI [8]: > 100 µM | TGI [9]: 34 µM | TGI [10]: > 100 µM
